Columns and labels:
[1] = system: lipogenesis (liver); test: inhibition of glucose incorporation into lipid in sheep liver tissue slices; assay type: cell-based; conditions: 100 micrograms per milliliter, 37° C., 2 hours
Source text: (§1) The manner in which they cause this effect is not known with certainty; it is believed that they interfere with the synthesis of fatty acids in the tissues. Their effectiveness for this purpose has been ascertained by immersing samples of animal liver or adipose tissue in a liquid medium containing radioactive glucose and the test chemical, for a period of time, then isolating the lipid from the treated tissues and determining the up-take of the radioactive carbon by means of scintillation counting techniques. These tests were conducted in both liver and adipose tissue, because in some animals the primary site of lipogenesis appears to be liver tissue, while in others it appears to be adipose tissue. The test animals were pigs, chickens and sheep.
(§2) Described in more detail, the tests were conducted according to the following general procedure: […]
(§3) The incubation was terminated by addition of 0.25 milliliter of 1 N sulfuric acid. […] The extracts were washed according to Folch et al. (J. Biol. Chem., 226, 497-509, (1957)), air dried, and counted in a liquid scintillation counter with 15 milliliters of counting fluid (two parts toluene containing 0.4% w/v New England Nuclear Omnifluor:one part Triton X-100). […] From the date obtained were calculated the percent inhibition of lipid synthesis by the test compounds in each case. […]

[2] = system: lipogenesis (liver); test: inhibition of glucose incorporation into lipid in chicken liver tissue slices; assay type: cell-based; conditions: 100 micrograms per milliliter, 37° C., 2 hours
Source text: as §1, §2, §3

[3] = system: lipogenesis (adipose tissue); test: inhibition of glucose incorporation into lipid in sheep adipose tissue slices; assay type: cell-based; conditions: 100 micrograms per milliliter, 37° C., 2 hours
Source text: as §1, §2, §3

[4] = system: lipogenesis (swine adipose tissue); test: inhibition of lipogenesis from glucose-U-14C in pig adipose tissue slices (percent inhibition of lipid synthesis); assay type: cell-based, pig (swine); conditions: Sus scrofa, 100 micrograms per milliliter, 37° C., 2 hours, triplicate, read-out: Percent Inhibition (of lipogenesis compared to control)
Source text: as §1
Described in more detail, the tests were conducted according to the following general procedure:
Tissue slices (200 milligrams for liver and 150 milligrams for adipose tissue) were incubated at 37° C. for 2 hours with shaking in 3 milliliters of Krebs-Ringer bicarbonate solution containing one-half the normal calcium ion concentration, 60 micromoles of glucose, 0.5 microCurie of glucose-U^14 C., 300 microunits of insulin, and 5% dimethyl sulfoxide (DMSO). The test compounds were added as a suspension in DMSO and were present at a concentration of 100 micrograms per milliliter of the incubation mixture.
The incubation was terminated by addition of 0.25 milliliter of 1 N sulfuric acid. The resulting mixture was extracted with a total of 25 milliliters of chloroform:methanol (2:1, v/v). The extracts were washed according to Folch et al. (J. Biol. Chem., 226, 497-509, (1957)), air dried, and counted in a liquid scintillation counter with 15 milliliters of counting fluid (two parts toluene containing 0.4% w/v New England Nuclear Omnifluor:one part Triton X-100). The tests were conducted in triplicate and were accompanied by control tests in which all ingredients,proportions and conditions were the same except that no test compound was included. From the date obtained were calculated the percent inhibition of lipid synthesis by the test compounds in each case.
Compound 1 was tested with respect to all of the animals. The other compounds were tested only with respect to the pig.
From these and other tests, it has been established that in pigs there is little lipogenic activity in the liver tissue. From these and other tests, it also has been established that swine adipose tissue utilizes glucose for lipogenesis, and to be the major site of fatty acid synthesis. The data obtained from the tests using adipose tissue and glucose are set out in Table 1, as the percent inhibition of lipogenesis compared to the results obtained in the control tests wherein only the test compound was omitted.

In the case of `NC(=O)[C@@H]1O[C@H]1C(=O)c1ccc(Cl)cc1` (relative stereo) [Compound 1, 3-(4-chlorobenzoyl)oxiranecarboxamide(trans)], the “inhibition of glucose incorporation in the liver” value [1] is reported as 15%, the “inhibition of glucose incorporation into the liver” value [2] is reported as 54% and the “inhibition of glucose incorporation in adipose tissue” value [3] is reported as 65%. It also gave an inhibition at 100 µg/mL [4] of 94%.

For `CN(C)C(=O)[C@@H]1O[C@H]1C(=O)c1ccc(Cl)cc1` (relative stereo) [Compound 2, 3-(4-chlorobenzoyl)-N,N-dimethyloxiranecarboxamide(trans)], the inhibition at 100 µg/mL [4] was 70%.

With `CNC(=O)[C@@H]1O[C@H]1C(=O)c1ccc(Cl)cc1` (relative stereo) [Compound 3, 3-(4-chlorobenzoyl)-N-methyloxiranecarboxamide(trans)] the inhibition at 100 µg/mL [4] was 96%.

`NC(=O)[C@@H]1O[C@H]1C(=O)c1ccc(Cl)c(Cl)c1` (relative stereo) [Compound 4, 3-(3,4-dichlorobenzoyl)oxiranecarboxamide(trans)] showed an inhibition at 100 µg/mL [4] of 96%.

For `Cc1ccc(C(=O)[C@@H]2O[C@H]2C(N)=O)cc1` (relative stereo) [Compound 5, 3-(4-methylbenzoyl)oxiranecarboxamide(trans)], the inhibition at 100 µg/mL [4] was 89%.

`NC(=O)[C@@H]1O[C@H]1C(=O)c1ccccc1` (relative stereo) [Compound 6, 3-(benzoyl)oxiranecarboxamide(trans)] showed an inhibition at 100 µg/mL [4] of 91%.

`CC(C)NC(=O)[C@@H]1O[C@H]1C(=O)c1ccc(Cl)cc1` (relative stereo) [Compound 7, 3-(4-chlorobenzoyl)-N-(1-methylethyl)oxiranecarboxamide(trans)] gave an inhibition at 100 µg/mL [4] of 90%.

`NC(=O)[C@@H]1O[C@H]1C(=O)c1cccc([N+](=O)[O-])c1` (relative stereo) [Compound 8, 3-(3-nitrobenzoyl)oxiranecarboxamide(trans)] was tested, and the inhibition at 100 µg/mL [4] was 96%.

In the case of `C=CCNC(=O)[C@@H]1O[C@H]1C(=O)c1ccc(Cl)cc1` (relative stereo) [Compound 9, 3-(4-chlorobenzoyl)-N-(2-propenyl)oxiranecarboxamide(trans)], the inhibition at 100 µg/mL [4] is reported as 94%.

Compound `O=C(c1ccc(Cl)cc1)[C@@H]1O[C@H]1C(=O)N1CCOCC1` (relative stereo) [Compound 10, (4-chlorophenyl) (3-(4-morpholinylcarbonyl)oxiranyl)methanone(trans)] has an inhibition at 100 µg/mL [4] of 77%.

`CC(=O)Nc1ccc(C(=O)[C@@H]2O[C@H]2C(N)=O)cc1` (relative stereo) [Compound 11, 3-(4-acetamidobenzoyl)oxiranecarboxamide(trans)] was tested, and the inhibition at 100 µg/mL [4] was 23%.

For `COc1ccc(C(=O)[C@@H]2O[C@H]2C(N)=O)cc1` (relative stereo) [Compound 12, 3-(4-methoxybenzoyl)oxiranecarboxamide(trans)], the inhibition at 100 µg/mL [4] was 64%.

With `C#CCNC(=O)[C@@H]1O[C@H]1C(=O)c1ccc(Cl)cc1` (relative stereo) [Compound 13, 3-(4-chlorobenzoyl)-N-(2-propynyl)oxiranecarboxamide(trans)] the inhibition at 100 µg/mL [4] was 87%.

In the case of `NC(=O)[C@@H]1O[C@H]1C(=O)c1ccc(Br)cc1` (relative stereo) [Compound 14, 3-(4-bromobenzoyl)oxiranecarboxamide(trans)], the inhibition at 100 µg/mL [4] is reported as 90%.

With `NC(=O)[C@@H]1O[C@H]1C(=O)c1ccc(F)cc1` (relative stereo) [Compound 15, 3-(4-fluorobenzoyl)oxiranecarboxamide(trans)] the inhibition at 100 µg/mL [4] was 90%.

`NC(=O)[C@@H]1O[C@H]1C(=O)c1ccc(Cl)cc1Cl` (relative stereo) [Compound 16, 3-(2,4-dichlorobenzoyl)oxiranecarboxamide(trans)] was tested, and the inhibition at 100 µg/mL [4] was 91%.

For `NC(=O)[C@@H]1O[C@H]1C(=O)c1cccc(C(F)(F)F)c1` (relative stereo) [Compound 17, 3-(3-(trifluoromethyl)benzoyl)oxiranecarboxamide(trans)], the inhibition at 100 µg/mL [4] was 94%.
